What is called IC50 is the concentration needed to halve the response being measured. The term melting point denotes the temperature, or range, at which the solid turns liquid.

For 32 compounds, IC50 and melting point results are on record in patent publication US9227970B2, “Triazolopyridine compounds” (Hoffmann-La Roche Inc., priority 2011, dated 2016).

One data set addresses human PDE10A (Homo sapiens (Human), UniProt Q9Y233). The data set is described as follows: human PDE10A full length Scintillation Proximity Assay (SPA). The data set is classed as biochemical. To be noted: 50 nM cGMP + 50 nM [3H]-cGMP, 20 minutes at room temperature, read-out: PDE10A inhibition IC50. How it is done:
The following test was carried out in order to determine the activity of the compounds of the present invention. […] The human PDE10A full length assay was performed in 96-well micro titer plates. […] A range of concentrations of the potential inhibitor was used to generate data for calculating the concentration of inhibitor resulting in 50% of the effect (e.g. […] Non-specific activity was tested without the enzyme. The reaction was initiated by the addition of the substrate solution (cGMP and [^3H]-cGMP) and allowed to progress for 20 minutes at room temperature. The reaction was terminated by adding 25 μl of YSi-SPA scintillation beads (GE Healthcare, cat. # RPNQ0150) in 18 mM zinc sulphate solution (stop reagent). […] Afterwards, radioactive counts were measured on a Perkin Elmer Top-Count Scintillation plate reader.
On the technique in general: In a scintillation proximity assay essentially only radioactivity close to the scintillant gives light.

Chain of human PDE10A (Q9Y233 other isoform, or with tags, fused parts or gaps): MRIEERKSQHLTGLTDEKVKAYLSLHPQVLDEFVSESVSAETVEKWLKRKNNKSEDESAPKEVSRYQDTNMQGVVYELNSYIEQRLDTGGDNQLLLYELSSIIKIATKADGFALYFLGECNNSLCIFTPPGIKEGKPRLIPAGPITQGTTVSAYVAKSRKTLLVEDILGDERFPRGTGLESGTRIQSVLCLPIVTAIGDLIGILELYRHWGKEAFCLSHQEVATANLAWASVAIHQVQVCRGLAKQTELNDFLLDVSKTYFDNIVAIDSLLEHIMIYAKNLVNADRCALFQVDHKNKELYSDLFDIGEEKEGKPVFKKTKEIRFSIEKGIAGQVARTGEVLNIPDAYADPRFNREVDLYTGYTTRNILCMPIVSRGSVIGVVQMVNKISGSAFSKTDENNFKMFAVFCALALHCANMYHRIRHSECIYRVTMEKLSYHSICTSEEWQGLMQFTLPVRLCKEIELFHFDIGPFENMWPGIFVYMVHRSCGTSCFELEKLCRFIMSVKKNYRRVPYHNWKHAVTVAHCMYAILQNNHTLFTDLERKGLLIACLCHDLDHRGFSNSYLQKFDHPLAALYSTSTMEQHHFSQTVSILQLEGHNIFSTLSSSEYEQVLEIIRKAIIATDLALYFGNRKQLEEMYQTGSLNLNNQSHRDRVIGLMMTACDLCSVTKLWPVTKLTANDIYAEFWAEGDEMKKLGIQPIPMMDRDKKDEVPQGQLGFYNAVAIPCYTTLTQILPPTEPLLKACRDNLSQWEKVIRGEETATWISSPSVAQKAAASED

Take `CCN(CC)c1nc2ccc(NC(=O)c3c(C(=O)N(C)C4CC4)cnn3C)cn2n1` [Example 31]: the IC50 on human PDE10A stood at 2.3 nM.
`CCN(CC)c1nc2ccc(NC(=O)c3c(C(=O)N4CCOCC4)cnn3C)cn2n1` [Example 26, 2-Methyl-4-(morpholine-4-carbonyl)-2H-pyrazole-3-carboxylic acid (2-diethylamino-[1,2,4]triazolo[1,5-a]pyridin-6-yl)-amide]: the 50% inhibitory concentration (IC50) at human PDE10A came to 21.8 nM.
`CN(C(=O)c1cnn(C)c1C(=O)Nc1ccc2nc(N3CCOCC3)nn2c1)C1CC1` [Example 18, 2-Methyl-2H-pyrazole-3,4-dicarboxylic acid 4-(cyclopropyl-methyl-amide) 3-[(2-morpholin-4-yl-[1,2,4]triazolo[1,5-a]pyridin-6-yl)-amide]] showed a melting point of 172 °C. Further, the IC50 on human PDE10A came to 7.2 nM.
With `Cn1ncc(C(=O)N2CCCC2)c1C(=O)Nc1ccc2nc(N3CCCC3)nn2c1` [Example 34, 2-Methyl-4-(pyrrolidine-1-carbonyl)-2H-pyrazole-3-carboxylic acid (2-pyrrolidin-1-yl-[1,2,4]triazolo[1,5-a]pyridin-6-yl)-amide], the IC50 at human PDE10A stood at 1.2 nM.
Still for that read-out and setting: then `CN(C)c1nc2ccc(NC(=O)c3c(C(=O)N4CCCC4)cnn3C)cn2n1` [Example 21, 2-Methyl-4-(pyrrolidine-1-carbonyl)-2H-pyrazole-3-carboxylic acid (2-dimethylamino-[1,2,4]triazolo[1,5-a]pyridin-6-yl)-amide], with 28.6 nM; and `CCN(C)C(=O)c1cnn(C)c1C(=O)Nc1ccc2nc(N3CCC(OC)C3)nn2c1` (stereo not shown) [Example 40, 2-Methyl-2H-pyrazole-3,4-dicarboxylic acid 4-(ethyl-methyl-amide) 3-{[2-(3-methoxy-pyrrolidin-1-yl)-[1,2,4]triazolo[1,5-a]pyridin-6-yl]-amide}], with 17 nM.
For `CCN(CC)c1nc2ccc(NC(=O)c3c(C(=O)N4CCC4)cnn3C)cn2n1` [Example 28, 2-Methyl-4-(azetitine-4-carbonyl)-2H-pyrazole-3-carboxylic acid (2-diethylamino-[1,2,4]triazolo[1,5-a]pyridin-6-yl)-amide], the IC50 at human PDE10A amounted to 3.3 nM.
Same read-out and setting: as for `Cn1ncc(C(=O)N2CCC2)c1C(=O)Nc1ccc2nc(N3CCCC3)nn2c1` [Example 33], the figure is 0.8 nM; as for `COC1CCN(c2nc3ccc(NC(=O)c4c(C(=O)N(C)C5CC5)cnn4C)cn3n2)C1` (stereo not shown) [Example 41, 2-Methyl-2H-pyrazole-3,4-dicarboxylic acid 4-(cyclopropyl-methyl-amide) 3-{[2-(3-methoxy-pyrrolidin-1-yl)-[1,2,4]triazolo[1,5-a]pyridin-6-yl]-amide}], 3.5 nM.
On the same count and under the same terms, then `CCN(C)C(=O)c1cnn(C)c1C(=O)Nc1ccc2nc(-c3ccccc3)nn2c1` [Example 7, 2-Methyl-2H-pyrazole-3,4-dicarboxylic acid 4-(ethyl-methyl-amide) 3-[(2-phenyl-[1,2,4]triazolo[1,5-a]pyridin-6-yl)-amide]], with 2.2 nM.
The same measure, in the same setting: then `CCN(CC)C(=O)c1cnn(C)c1C(=O)Nc1ccc2nc(N3CCCC3)nn2c1` [Example 37], with 3.5 nM.
In the case of `COc1ncc(C2CC2)nc1C(=O)Nc1ccc2nc(-c3ccccc3)nn2c1` [Example 25, 6-cyclopropyl-3-methoxy-N-(2-phenyl-[1,2,4]triazolo[1,5-a]pyridin-6-yl)pyrazine-2-carboxamide], the half-maximal inhibitory concentration (IC50) on human PDE10A is 17 nM.
Still for that read-out and setting: as for `Cn1ncc(C(=O)N2CCOCC2)c1C(=O)Nc1ccc2nc(N3CCOCC3)nn2c1` [Example 14, 2-Methyl-4-(morpholine-4-carbonyl)-2H-pyrazole-3-carboxylic acid (2-morpholin-4-yl-[1,2,4]triazolo[1,5-a]pyridin-6-yl)-amide], the figure is 63.8 nM; as for `CCN(C)C(=O)c1cnn(C)c1C(=O)Nc1ccc2nc(N3CCCC3)nn2c1` [Example 36], 1.9 nM.
`CN(C(=O)c1cnn(C)c1C(=O)Nc1ccc2nc(-c3ccccc3)nn2c1)C1CC1` [Example 8, 2-Methyl-2H-pyrazole-3,4-dicarboxylic acid 4-(cyclopropyl-methyl-amide) 3-[(2-phenyl-[1,2,4]triazolo[1,5-a]pyridin-6-yl)-amide]] gave a melting point of 106 °C. Besides, the concentration for half-maximal inhibition (IC50) on human PDE10A came to 0.9 nM.
In the case of `CCN(C)C(=O)c1cnn(C)c1C(=O)Nc1ccc2nc(N(CC)CC)nn2c1` [Example 29, 2-Methyl-2H-pyrazole-3,4-dicarboxylic acid 3-[(2-diethylamino-[1,2,4]triazolo[1,5-a]pyridin-6-yl)-amide] 4-(ethyl-methyl-amide)], on human PDE10A, the IC50 is 9.9 nM.
As for `CCN(CC)C(=O)c1cnn(C)c1C(=O)Nc1ccc2nc(N(CC)CC)nn2c1` [Example 30, 2-Methyl-2H-pyrazole-3,4-dicarboxylic acid 4-diethylamide 3-[(2-diethylamino-1,2,4]triazolo[1,5-a]pyridin-6-yl)-amide], the half-inhibitory concentration (IC50) at human PDE10A turned out to be 19.1 nM.
On the same count and under the same terms, then `COC1CCN(c2nc3ccc(NC(=O)c4c(C(=O)N5CCOCC5)cnn4C)cn3n2)C1` (stereo not shown) [Example 39, 2-Methyl-4-(morpholine-4-carbonyl)-2H-pyrazole-3-carboxylic acid [2-(3-methoxy-pyrrolidin-1-yl)-[1,2,4]triazolo[1,5-a]pyridin-6-yl]-amide], with 23.1 nM.
As for `COC1CCN(c2nc3ccc(NC(=O)c4c(C(=O)N5CCC5)cnn4C)cn3n2)C1` (stereo not shown) [Example 43, 4-(Azetidine-1-carbonyl)-2-methyl-2H-pyrazole-3-carboxylic acid [2-(3-methoxy-pyrrolidin-1-yl)-[1,2,4]triazolo[1,5-a]pyridin-6-yl]-amide], on human PDE10A, the IC50 was determined as 4.9 nM.
On the same count and under the same terms, then `COC1CCN(c2nc3ccc(NC(=O)c4c(C(=O)N5CCCC5)cnn4C)cn3n2)C1` (stereo not shown) [Example 42, 2-Methyl-4-(pyrrolidine-1-carbonyl)-2H-pyrazole-3-carboxylic acid [2-(3-methoxy-pyrrolidin-1-yl)-[1,2,4]triazolo[1,5-a]pyridin-6-yl]-amide], with 7.5 nM; and `CN(C)c1nc2ccc(NC(=O)c3c(C(=O)N4CC(F)C4)cnn3C)cn2n1` [Example 23, 4-(3-Fluoro-azetidine-1-carbonyl)-2-methyl-2H-pyrazole-3-carboxylic acid (2-dimethylamino-[1,2,4]triazolo[1,5-a]pyridin-6-yl)-amide], with 25 nM.
The compound `Cn1ncc(C(=O)N2CCCC2)c1C(=O)Nc1ccc2nc(N3CCOCC3)nn2c1` [Example 13, 2-Methyl-4-(pyrrolidine-1-carbonyl)-2H-pyrazole-3-carboxylic acid (2-morpholin-4-yl-[1,2,4]triazolo[1,5-a]pyridin-6-yl)-amide] displayed a melting point of 185 °C. The IC50 at human PDE10A is 15.4 nM.
The matching figures for `Cn1ncc(C(=O)N2CCC2)c1C(=O)Nc1ccc2nc(-c3cccnc3)nn2c1` [Example 10, 4-(Azetidine-1-carbonyl)-1-methyl-N-(2-(pyridin-3-yl)-[1,2,4]triazolo[1,5-a]pyridin-6-yl)-1H-pyrazole-5-carboxamide]: 272 °C and 43.6 nM.
Turning to `CN(C)c1nc2ccc(NC(=O)c3c(C(=O)N(C)C4CC4)cnn3C)cn2n1` [Example 24, 2-Methyl-2H-pyrazole-3,4-dicarboxylic acid 4-(cyclopropyl-methyl-amide) 3-[(2-dimethylamino-[1,2,4]triazolo[1,5-a]pyridin-6-yl)-amide]], the IC50 at human PDE10A was 5.3 nM.
On the same count and under the same terms, then `Cn1ncc(C(=O)N2CCOCC2)c1C(=O)Nc1ccc2nc(N3CCCC3)nn2c1` [Example 32, 2-Methyl-4-(morpholine-4-carbonyl)-2H-pyrazole-3-carboxylic acid (2-pyrrolidin-1-yl-[1,2,4]triazolo[1,5-a]pyridin-6-yl)-amide], with 2.5 nM; and `CCN(CC)C(=O)c1cnn(C)c1C(=O)Nc1ccc2nc(N3CCC(OC)C3)nn2c1` (stereo not shown) [Example 38], with 29.4 nM.
Compound `Cn1ncc(C(=O)O)c1C(=O)Nc1ccc2nc(-c3ccccc3)nn2c1` [Example 1, 1-Methyl-5-(2-phenyl-[1,2,4]triazolo[1,5-a]pyridin-6-ylcarbamoyl)-1H-pyrazole-4-carboxylic acid] had a melting point of 259 °C. Moreover, at human PDE10A, the IC50 stood at 47.3 nM.
Consider `CN(C(=O)c1cnn(C)c1C(=O)Nc1ccc2nc(N3CCCC3)nn2c1)C1CC1` [Example 35], for which the IC50 on human PDE10A amounted to 1 nM.
As to `CCN(C)C(=O)c1cnn(C)c1C(=O)Nc1ccc2nc(N(C)C)nn2c1` [Example 22, 2-Methyl-2H-pyrazole-3,4-dicarboxylic acid 3-[(2-dimethylamino-[1,2,4]triazolo[1,5-a]pyridin-6-yl)-amide] 4-(ethyl-methyl-amide)], the IC50 on human PDE10A was 33.5 nM.
With `CCN(C)C(=O)c1cnn(C)c1C(=O)Nc1ccc2nc(N3CCOCC3)nn2c1` [Example 16, 2-Methyl-2H-pyrazole-3,4-dicarboxylic acid 4-(ethyl-methyl-amide) 3-[(2-morpholin-4-yl-[1,2,4]triazolo[1,5-a]pyridin-6-yl)-amide]], the IC50 at human PDE10A stood at 30.8 nM.
On the same count and under the same terms, as for `Cn1ncc(C(=O)N2CCC2)c1C(=O)Nc1ccc2nc(-c3cscn3)nn2c1` [Example 4, 4-(Azetidine-1-carbonyl)-1-methyl-N-(2-(thiazol-4-yl)-[1,2,4]triazolo[1,5-a]pyridin-6-yl)-1H-pyrazole-5-carboxamide], the figure is 7.9 nM; as for `Cn1ncc(C(=O)N2CC(F)C2)c1C(=O)Nc1ccc2nc(N3CCOCC3)nn2c1` [Example 17, 4-(3-Fluoro-azetidine-1-carbonyl)-2-methyl-2H-pyrazole-3-carboxylic acid (2-morpholin-4-yl-[1,2,4]triazolo[1,5-a]pyridin-6-yl)-amide], 26.5 nM.
